This assay has as its target T1, ERα (Homo sapiens, UniProt P03372).
T1 construct: host or cells: MCF-7
T1 sequence (P03372 1-595): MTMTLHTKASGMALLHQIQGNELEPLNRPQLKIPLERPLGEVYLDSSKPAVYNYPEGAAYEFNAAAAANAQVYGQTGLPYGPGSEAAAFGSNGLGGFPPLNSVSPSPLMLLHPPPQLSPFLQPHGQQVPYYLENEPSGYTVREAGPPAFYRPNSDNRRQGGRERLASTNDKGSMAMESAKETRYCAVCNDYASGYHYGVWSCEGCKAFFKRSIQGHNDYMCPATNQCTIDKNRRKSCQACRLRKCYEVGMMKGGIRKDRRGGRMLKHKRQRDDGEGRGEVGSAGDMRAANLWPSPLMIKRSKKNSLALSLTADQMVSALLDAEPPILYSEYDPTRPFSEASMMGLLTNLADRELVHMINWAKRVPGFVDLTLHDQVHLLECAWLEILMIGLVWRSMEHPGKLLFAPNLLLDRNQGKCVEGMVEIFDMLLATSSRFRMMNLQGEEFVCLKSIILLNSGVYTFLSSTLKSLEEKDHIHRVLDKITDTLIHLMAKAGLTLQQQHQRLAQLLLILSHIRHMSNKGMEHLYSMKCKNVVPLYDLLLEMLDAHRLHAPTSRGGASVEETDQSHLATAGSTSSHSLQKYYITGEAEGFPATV
The experiment in a line: ER degradation activity in MCF-7 cells (Western blot, grayscale intensity). It counts as cell-based. To be noted: 6 hours treatment, 1 nM to 100 nM, concentration required to degrade 50% of the target protein. The protocol:
ERα-positive human breast cancer cells MCF-7 (ATCC, HTB-22) were cultured with EMEM medium (ATCC, catalog number 30-2003) containing 10% fetal bovine serum (Thermo Fisher, catalog number 10099141) and 10 µg/mL bovine insulin in 25 cm^2 or 75 cm^2 plastic tissue culture flasks in a 37 °C incubator with 5% CO2. The cells were passaged 2 to 3 times per week. MCF-7 cells were seeded in 6-well plate at 1×10^6 cells/well with 1.8 mL culture medium per well, and cultured in a 37 °C incubator with 95% air and 5% CO2. After 24 hours, the test compounds were added: the compounds were serially diluted 10-fold in DMSO starting from 10 mM (dissolved in DMSO) to prepare gradient stock solutions. A complete culture medium containing 1% DMSO was prepared for further dilution, temporarily named as the "dilution buffer." Working solutions were prepared by diluting each stock solution with 99 times the volume of dilution buffer, that is, by adding 1 µL of the 10 mM stock solution to 99 µL of the dilution buffer and mixing thoroughly.
Finally, […] of the working solution was added to the cell-seeded culture plate. The final concentration of DMSO in the cell culture medium was 0.2%, and the final concentration of the test compounds ranged from 1 nM to 100 nM. The cells were then incubated at 37 °C for 6 hours.
The culture medium was removed, and the cells were washed twice with ice cold PBS. 1 mL of PBS was added to each well, and the cells were collected into EP tubes using a cell scraper, and centrifuged at 4 °C, 4000 rpm for 5 minutes. PBS was aspirated. Total protein was extracted using the Minute™ Mammalian Tissue/Cell Total Protein Extraction Reagent. The protein concentration was measured using the BCA protein assay kit. 30 µg of protein was taken and mixed with 5× SDS-PAGE loading buffer, boiled for 10 minutes, and cooled. The samples were loaded into wells of a precast gel, with constant voltage at 80 V for 30 minutes, and then the voltage was changed to 120 V after the samples entered the resolving gel. The "sandwich" (sponge - filter paper - gel - membrane - filter paper - sponge) was assembled for Bio-Rad's Transblot. Transfer was performed for 1 hour at 0.3 amp at 4 °C. The sample was blocked with 5% fat-free milk for 1 hour, and incubated with Estrogen Receptor alpha Antibody (Thermo Fisher, catalog number MA5-14104) overnight at 4 °C. The membrane was washed with TBST to remove non-specifically bound antibodies, and then incubated with goat anti-mouse IgG-HRP secondary antibody for 1 hour at room temperature, and was visualized using ECL. The protein degradation level was calculated by measuring the grayscale intensity.
The DC50 values (i.e., the concentration of the test compounds required to degrade 50% of the target protein) were calculated and shown in Table 1. A corresponds to a DC50 value below 10 nM, B corresponds to a DC50 value greater than 10 nM and less than 100 nM, and C corresponds to DC50 values greater than 100 nM. Table 1. The DC50 values of exemplary compounds in MCF-7 cells
(In general: A western blot detects proteins with antibodies after separation by electrophoresis.)

Turning to `CC1(C)CC(=C(c2ccc(N3CCC4(CC(N5CCN(c6ccc7c(c6)CN(C6CCC(=O)NC6=O)C7=O)CC5)C4)C3)nc2)c2ccc3[nH]nc(F)c3c2)CC(C)(C)O1` (stereo not drawn) [Compound 49], the DC50 was > 100 nM.

As for `CC1(C)CC(=C(c2ccc(N3CC4(CC(N5CCN(c6ccc7c(c6)CN(C6CCC(=O)NC6=O)C7=O)CC5)C4)C3)nc2)c2ccc3[nH]nc(F)c3c2)CC(C)(C)O1` (stereo not drawn) [Compound 50], the DC50 is > 100 nM.

Take `CC1(C)CC(=C(c2ccc(N3CC4C(CN5CCN(c6ccc7c(c6)CN(C6CCC(=O)NC6=O)C7=O)CC5)C4C3)nc2)c2ccc3[nH]nc(F)c3c2)CC(C)(C)O1` (stereo not drawn) [Compound 51]: the half-maximal degradation concentration (DC50) is > 100 nM.

With `CC1(C)CC(=C(c2ccc(N3CCN(C[C@@H]4[C@H]5CN(c6ccc7c(c6)CN(C6CCC(=O)NC6=O)C7=O)C[C@@H]45)CC3)nc2)c2ccc3[nH]nc(F)c3c2)CC(C)(C)O1` (stereo partly drawn) [Compound 52], the half-maximal degradation concentration (DC50) is > 100 nM.

As for `CC1(C)CC(=C(c2ccc(N3CCN(C4CC5(CCN(c6ccc7c(c6)CN(C6CCC(=O)NC6=O)C7=O)C5)C4)CC3)nc2)c2ccc3[nH]nc(F)c3c2)CC(C)(C)O1` (stereo not drawn) [Compound 53], the DC50 is > 100 nM.

As for `CC1(C)CC(=C(c2ccc(N3CCC4(CC3)CC(CN3CCN(c5ccc6c(c5)CN(C5CCC(=O)NC5=O)C6=O)CC3)C4)nc2)c2ccc3[nH]nc(F)c3c2)CC(C)(C)O1` (stereo not drawn) [Compound 54], the DC50 is > 100 nM.

In the case of `CC1(C)CC(=C(c2ccc3[nH]nc(F)c3c2)c2c(F)cc(N3CCC(CN4CCN(c5ccc6c(c5)CN(C5CCC(=O)NC5=O)C6=O)CC4)CC3)cc2F)CC(C)(C)O1` (stereo not drawn) [Compound 55], the DC50 is > 100 nM.

Regarding `CC1(C)CC(=C(c2ccc(N3CCC(CNC4CN(c5ccc6c(c5)CN(C5CCC(=O)NC5=O)C6=O)C4)CC3)nc2)c2ccc3[nH]nc(F)c3c2)CC(C)(C)O1` (stereo not drawn) [Compound 57], the DC50 is < 10 nM.

Regarding `CC1(C)CC(=C(c2ccc(N3CCC(N4CCN(c5ccc6c(c5)CN(C5CCC(=O)NC5=O)C6=O)CC4)CC3)cc2)c2ccc3[nH]ncc3c2)CC(C)(C)O1` (stereo not drawn) [Compound 58], the DC50 is > 100 nM.

For the compound `CC1(C)CC(=C(c2ccc(N3CCC(F)(CN4CCN(c5ccc6c(c5)CN(C5CCC(=O)NC5=O)C6=O)CC4)CC3)nc2)c2ccc3[nH]nc(F)c3c2)CC(C)(C)O1` (stereo not drawn) [Compound 59], the DC50 is 10 to 100 nM.

For `CC1(C)CC(=C(c2ccc(OC3CCN(C4CCN(c5ccc6c(c5)CN(C5CCC(=O)NC5=O)C6=O)CC4)CC3)nc2)c2ccc3[nH]nc(F)c3c2)CC(C)(C)O1` (stereo not drawn) [Compound 60], the DC50 is > 100 nM.

Turning to `CC1(C)CC(=C(c2ccc(N3CCC(F)(CNC4CCN(c5ccc6c(c5)CN(C5CCC(=O)NC5=O)C6=O)CC4)CC3)nc2)c2ccc3[nH]nc(F)c3c2)CC(C)(C)O1` (stereo not drawn) [Compound 61], the DC50 is < 10 nM.

As to `CC1(C)CC(=C(c2ccc(N3CCC4(CC3)CC(N3CCN(c5ccc6c(c5)CN(C5CCC(=O)NC5=O)C6=O)CC3)C4)cc2)c2ccc3[nH]nc(F)c3c2)CC(C)(C)O1` (stereo not drawn) [Compound 62], the DC50 is > 100 nM.

As for `CC1(C)CC(=C(c2ccc(N3CCC4(CC3)CC(N3CCC(c5ccc6c(c5)CN(C5CCC(=O)NC5=O)C6=O)CC3)C4)nc2)c2ccc3[nH]nc(F)c3c2)CC(C)(C)O1` (stereo not drawn) [Compound 63], the half-maximal degradation concentration (DC50) was > 100 nM.

As for `CC1(C)CC(=C(c2ccc(N3CCN(C(=O)C4CCN(c5ccc6c(c5)CN(C5CCC(=O)NC5=O)C6=O)CC4)CC3)nc2)c2ccc3[nH]nc(F)c3c2)CC(C)(C)O1` (stereo not drawn) [Compound 65], the DC50 was > 100 nM.

Compound `CC1(C)CC(=C(c2ccc(N3CCN(C4CCN(c5ccc6c(c5)CN(C5CCC(=O)NC5=O)C6=O)CC4)CC3)cc2)c2ccc3[nH]ncc3c2)CC(C)(C)O1` (stereo not drawn) [Compound 66] returned a DC50 of 10 to 100 nM.

As for `CC1(C)CC(=C(c2ccc(N3CCN(C4CCN(c5ccc6c(c5)CN(C5CCC(=O)NC5=O)C6=O)CC4)CC3)nc2)c2ccc3[nH]nc(F)c3c2)CC(C)(C)O1` (stereo not drawn) [Compound 67], the DC50 was > 100 nM.

As for `CC1(C)CC(=C(c2ccc(N3CCC(CN4CCC(N5Cc6cc7c(cc6C5)C(=O)N(C5CCC(=O)NC5=O)C7)CC4)CC3)nc2)c2ccc3[nH]nc(F)c3c2)CC(C)(C)O1` (stereo not drawn) [Compound 69], the DC50 was < 10 nM.

What is called DC50 is the midpoint of the concentration-degradation curve. Lower therefore signals degradation at low concentration.

Source of the values: patent publication EP4722209A1 (Beijing Shenogen Pharma Group, priority 2023, dated 2024).
